# Measurements reported in PubChem BioAssay AID192 (DTP/NCI, 2004).
# Several values for one entry are separate records, joined by “and”; a condition that tells them apart may be missing. Equal values may be shown once. Toxic doses and inconclusive results are not listed. Peptide text beside a SMILES is read from it.
# Tested on: BDF1 mice, B16 melanoma ip, median survival T/C
# Test: NCI In Vivo Anticancer Drug Screen. Data for tumor model B16 Melanoma (intraperitoneal) in B6D2F1 (BDF1) mice
# Settings: endpoint: median survival time, higher = longer survival
# Outline: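 The ratio T/C compares compound-treated mice with vehicle-treated controls, using survival or tumor size as the endpoint in a transplantable tumor model.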
# [1] = dose: 1.56 mg/kg/injection, schedule: Q01DX009 (ip), vehicle: saline
# [2] = dose: 50.0 mg/kg/injection, schedule: Q01DX009 (ip), vehicle: Klucel (hydroxypropylcellulose) (HPC)
# [3] = dose: 100.0 mg/kg/injection, schedule: Q01DX009 (ip), vehicle: Klucel (hydroxypropylcellulose) (HPC)
# [4] = dose: 200.0 mg/kg/injection, schedule: Q01DX009 (ip), vehicle: Klucel (hydroxypropylcellulose) (HPC)
# [5] = dose: 10.0 mg/kg/injection, schedule: Q01DX009 (ip), vehicle: Klucel (hydroxypropylcellulose) (HPC)
# [6] = dose: 20.0 mg/kg/injection, schedule: Q01DX009 (ip), vehicle: Klucel (hydroxypropylcellulose) (HPC)
# [7] = dose: 12.5 mg/kg/injection, schedule: Q01DX009 (ip), vehicle: saline with Tween-80
# [8] = dose: 25.0 mg/kg/injection, schedule: Q01DX009 (ip), vehicle: saline with Tween-80
# [9] = dose: 50.0 mg/kg/injection, schedule: Q01DX009 (ip), vehicle: saline with Tween-80
# [10] = dose: 25.0 mg/kg/injection, schedule: Q01DX009 (ip), vehicle: Klucel (hydroxypropylcellulose) (HPC)
# [11] = dose: 100.0 mg/kg/injection, schedule: Q01DX009 (ip), vehicle: saline with Tween-80
# [12] = dose: 400.0 mg/kg/injection, schedule: Q01DX009 (ip), vehicle: Klucel (hydroxypropylcellulose) (HPC)
# [13] = dose: 200.0 mg/kg/injection, schedule: Q01DX009 (ip), vehicle: saline
# [14] = dose: 400.0 mg/kg/injection, schedule: Q01DX009 (ip), vehicle: saline
structure (smiles),measurement,setting,value
NC(=O)c1ccc[n+](Cc2c(Cl)cccc2Cl)c1,T/C,"dose: 0.75 mg/kg/injection, schedule: Q01DX009 (ip), vehicle: saline",99 % of control
same,T/C,"dose: 1.5 mg/kg/injection, schedule: Q01DX009 (ip), vehicle: saline",96 % of control and 102 % of control
same,T/C,"dose: 3.0 mg/kg/injection, schedule: Q01DX009 (ip), vehicle: saline",102 % of control and 111 % of control
same,T/C,"dose: 6.0 mg/kg/injection, schedule: Q01DX009 (ip), vehicle: saline",98 % of control
same,T/C,"dose: 12.0 mg/kg/injection, schedule: Q01DX009 (ip), vehicle: saline",98 % of control and 99 % of control
same,T/C,"dose: 24.0 mg/kg/injection, schedule: Q01DX009 (ip), vehicle: saline",105 % of control
C[CH2][Sn]([CH2]C)([CH2]C)[O]C(=O)CO,T/C,[1],97 % of control
same,T/C,"dose: 3.13 mg/kg/injection, schedule: Q01DX009 (ip), vehicle: saline",87 % of control
CNC(=S)N/N=C(\C=N\NC(=S)NC)c1ccc(C)cc1,T/C,[2],101 % of control
same,T/C,[3],90 % of control
same,T/C,[4],89 % of control
CC(CNCCN)C[Si](C)(C)C (configuration not stated),T/C,"dose: 12.5 mg/kg/injection, schedule: Q01DX009 (ip), vehicle: suspension in saline",99 % of control
same,T/C,"dose: 25.0 mg/kg/injection, schedule: Q01DX009 (ip), vehicle: suspension in saline",96 % of control
c1ccc2c(NCCCCCCCCNc3c4ccccc4nc4ccccc34)c3ccccc3nc2c1,T/C,"dose: 5.0 mg/kg/injection, schedule: Q01DX009 (ip), vehicle: Klucel (hydroxypropylcellulose) (HPC)",151 % of control and 159 % of control
same,T/C,[5],164 % of control
same,T/C,[6],156 % of control
CCCCNC(C)(C)C1(c2ccc(Cl)cc2)SSC(c2ccc(Cl)cc2)(C(C)(C)NCCCC)SS1 (configuration not stated),T/C,[5],94 % of control
same,T/C,[6],89 % of control
same,T/C,"dose: 40.0 mg/kg/injection, schedule: Q01DX009 (ip), vehicle: Klucel (hydroxypropylcellulose) (HPC)",86 % of control
CC(=O)c1ccc2ccccc2c1O,T/C,[7],107 % of control
same,T/C,[8],93 % of control
same,T/C,[9],106 % of control
same,T/C,"dose: 100.0 mg/kg/injection, schedule: Q04DX003 (ip), vehicle: saline with Tween-80",100 % of control
same,T/C,"dose: 200.0 mg/kg/injection, schedule: Q04DX003 (ip), vehicle: saline with Tween-80",110 % of control
same,T/C,"dose: 400.0 mg/kg/injection, schedule: Q04DX003 (ip), vehicle: saline with Tween-80",100 % of control
O=C(Nc1ccc(F)cc1)Nc1nccs1,T/C,[10],99 % of control
same,T/C,[2],104 % of control
same,T/C,[3],101 % of control
same,T/C,[4],104 % of control
Clc1nc(SC2=NCCN2)c2[nH]cnc2n1,T/C,"dose: 1.25 mg/kg/injection, schedule: Q01DX009 (ip), vehicle: saline with Tween-80",93 % of control
same,T/C,"dose: 2.5 mg/kg/injection, schedule: Q01DX009 (ip), vehicle: saline with Tween-80",97 % of control
same,T/C,"dose: 5.0 mg/kg/injection, schedule: Q01DX009 (ip), vehicle: saline with Tween-80",101 % of control
same,T/C,"dose: 10.0 mg/kg/injection, schedule: Q01DX009 (ip), vehicle: saline with Tween-80",101 % of control and 103 % of control
C#CC1(OCC(CCl)OC(N)=O)CCCCC1 (configuration not stated),T/C,[8],87 % of control
same,T/C,[11],104 % of control
Cc1ccc(C2NC(=O)c3ccccc3N2)c(C)c1 (configuration not stated),T/C,[3],109 % of control
same,T/C,[4],109 % of control
same,T/C,[12],109 % of control
Cc1c(Cl)cccc1NC(=O)c1ccc(Cl)cc1,T/C,"dose: 75.0 mg/kg/injection, schedule: Q01DX009 (ip), vehicle: Klucel (hydroxypropylcellulose) (HPC)",94 % of control
same,T/C,"dose: 150.0 mg/kg/injection, schedule: Q01DX009 (ip), vehicle: Klucel (hydroxypropylcellulose) (HPC)",90 % of control
CC(NC(=O)C(C)NC(=O)C(N)CCC(=O)O)C(=O)O (stereo not drawn) (H-Glu-Ala-Ala-OH; configuration not given here),T/C,"dose: 50.0 mg/kg/injection, schedule: Q01DX009 (ip), vehicle: saline",111 % of control
same,T/C,"dose: 100.0 mg/kg/injection, schedule: Q01DX009 (ip), vehicle: saline",96 % of control
same,T/C,[13],105 % of control
same,T/C,[14],94 % of control
O=C1C(=O)c2cccc3cccc1c23,T/C,"dose: 12.5 mg/kg/injection, schedule: Q01DX009 (ip), vehicle: saline",88 % of control
same,T/C,"dose: 25.0 mg/kg/injection, schedule: Q01DX009 (ip), vehicle: saline",94 % of control
CCCCCCCCCCCCCCCCOc1ccc(C(=O)CC(=O)OC)cc1,T/C,[3],105 % of control
same,T/C,[4],94 % of control
Cc1ccc(NC(=O)Nc2cccc(Cl)c2C)cc1NC(=O)Nc1cccc(Cl)c1C,T/C,"dose: 6.25 mg/kg/injection, schedule: Q01DX009 (ip), vehicle: saline with Tween-80",94 % of control
same,T/C,[7],86 % of control
same,T/C,[8],88 % of control
O=CC(=O)c1ccc(O)cc1,T/C,[1],105 % of control
same,T/C,"dose: 3.12 mg/kg/injection, schedule: Q01DX009 (ip), vehicle: saline",97 % of control
same,T/C,"dose: 6.25 mg/kg/injection, schedule: Q01DX009 (ip), vehicle: saline",106 % of control
OC(C1CO1)C(O)C1CO1 (configuration not stated),T/C,"dose: 0.12 mg/kg/injection, schedule: Q01DX009 (ip), vehicle: saline",118 % of control
same,T/C,"dose: 0.13 mg/kg/injection, schedule: Q03HX024 (ip), vehicle: saline",114 % of control
same,T/C,"dose: 0.25 mg/kg/injection, schedule: Q01DX009 (ip), vehicle: saline",104 % of control and 107 % of control and 110 % of control
same,T/C,"dose: 0.25 mg/kg/injection, schedule: Q03HX008 (ip), vehicle: saline",123 % of control
same,T/C,"dose: 0.25 mg/kg/injection, schedule: Q03HX016 (ip), vehicle: saline",120 % of control
same,T/C,"dose: 0.5 mg/kg/injection, schedule: Q01DX005 (ip), vehicle: saline",113 % of control
same,T/C,"dose: 0.5 mg/kg/injection, schedule: Q03HX008 (ip), vehicle: saline",120 % of control
same,T/C,"dose: 1.0 mg/kg/injection, schedule: Q01DX005 (ip), vehicle: saline",119 % of control
same,T/C,"dose: 1.0 mg/kg/injection, schedule: Q03HX016 (ip), vehicle: saline",152 % of control
same,T/C,"dose: 1.0 mg/kg/injection, schedule: Q03HX024 (ip), vehicle: saline",172 % of control
same,T/C,"dose: 2.0 mg/kg/injection, schedule: Q01DX005 (ip), vehicle: saline",153 % of control
same,T/C,"dose: 2.0 mg/kg/injection, schedule: Q03HX008 (ip), vehicle: saline",160 % of control
same,T/C,"dose: 2.0 mg/kg/injection, schedule: Q03HX016 (ip), vehicle: saline",214 % of control
same,T/C,"dose: 4.0 mg/kg/injection, schedule: Q01DX001 (ip), vehicle: saline",158 % of control
same,T/C,"dose: 4.0 mg/kg/injection, schedule: Q01DX005 (ip), vehicle: saline",192 % of control
same,T/C,"dose: 4.0 mg/kg/injection, schedule: Q01DX009 (ip), vehicle: saline sonified",184 % of control
same,T/C,"dose: 4.0 mg/kg/injection, schedule: Q08DX002 (ip), vehicle: saline",158 % of control
same,T/C,"dose: 8.0 mg/kg/injection, schedule: Q01DX001 (ip), vehicle: saline",204 % of control
same,T/C,"dose: 8.0 mg/kg/injection, schedule: Q04DX003 (ip), vehicle: saline",171 % of control
same,T/C,"dose: 8.0 mg/kg/injection, schedule: Q08DX002 (ip), vehicle: saline",208 % of control
Nc1nccnc1N,T/C,[9],102 % of control
same,T/C,[11],88 % of control
CCC(C)C(C(=O)OCCN(CC)CC)c1ccccc1 (configuration not stated),T/C,"dose: 12.5 mg/kg/injection, schedule: Q01DX009 (ip), vehicle: Klucel (hydroxypropylcellulose) (HPC)",90 % of control
same,T/C,[10],96 % of control
same,T/C,[2],90 % of control and 93 % of control
Nc1ncnc2c1c(C(=O)O)cn2C1OC(CO)C(O)C1O (configuration not stated),T/C,[7],91 % of control
same,T/C,[8],93 % of control
same,T/C,[9],96 % of control
O=C(O)C1CC2C3CC(C(=O)O)C(C3)C2C1 (configuration not stated),T/C,"dose: 100.0 mg/kg/injection, schedule: Q04DX003 (ip), vehicle: saline",108 % of control
same,T/C,"dose: 200.0 mg/kg/injection, schedule: Q04DX003 (ip), vehicle: saline",104 % of control
same,T/C,"dose: 400.0 mg/kg/injection, schedule: Q04DX003 (ip), vehicle: saline",105 % of control
CCCCn1c(=S)[nH]c2ccccc2c1=O,T/C,[3],98 % of control
same,T/C,[4],96 % of control
same,T/C,[12],98 % of control
O=C1NC(=O)c2ccccc21,T/C,[13],97 % of control
same,T/C,[14],95 % of control
Nc1ccc2ccc(O)cc2c1,T/C,"dose: 75.0 mg/kg/injection, schedule: Q04DX003 (ip), vehicle: saline with Tween-80",105 % of control
same,T/C,"dose: 150.0 mg/kg/injection, schedule: Q04DX003 (ip), vehicle: saline with Tween-80",95 % of control
